In one assay the target is T1, TLR7 (Homo sapiens, UniProt Q9NYK1).
T1 construct: lymphocytes, monocytes and dendritic cells that express TLR7, TLR8 and TLR9; endogenous in cells; host or cells: human PBMCs from healthy donors
T1 sequence (Q9NYK1 27-1049): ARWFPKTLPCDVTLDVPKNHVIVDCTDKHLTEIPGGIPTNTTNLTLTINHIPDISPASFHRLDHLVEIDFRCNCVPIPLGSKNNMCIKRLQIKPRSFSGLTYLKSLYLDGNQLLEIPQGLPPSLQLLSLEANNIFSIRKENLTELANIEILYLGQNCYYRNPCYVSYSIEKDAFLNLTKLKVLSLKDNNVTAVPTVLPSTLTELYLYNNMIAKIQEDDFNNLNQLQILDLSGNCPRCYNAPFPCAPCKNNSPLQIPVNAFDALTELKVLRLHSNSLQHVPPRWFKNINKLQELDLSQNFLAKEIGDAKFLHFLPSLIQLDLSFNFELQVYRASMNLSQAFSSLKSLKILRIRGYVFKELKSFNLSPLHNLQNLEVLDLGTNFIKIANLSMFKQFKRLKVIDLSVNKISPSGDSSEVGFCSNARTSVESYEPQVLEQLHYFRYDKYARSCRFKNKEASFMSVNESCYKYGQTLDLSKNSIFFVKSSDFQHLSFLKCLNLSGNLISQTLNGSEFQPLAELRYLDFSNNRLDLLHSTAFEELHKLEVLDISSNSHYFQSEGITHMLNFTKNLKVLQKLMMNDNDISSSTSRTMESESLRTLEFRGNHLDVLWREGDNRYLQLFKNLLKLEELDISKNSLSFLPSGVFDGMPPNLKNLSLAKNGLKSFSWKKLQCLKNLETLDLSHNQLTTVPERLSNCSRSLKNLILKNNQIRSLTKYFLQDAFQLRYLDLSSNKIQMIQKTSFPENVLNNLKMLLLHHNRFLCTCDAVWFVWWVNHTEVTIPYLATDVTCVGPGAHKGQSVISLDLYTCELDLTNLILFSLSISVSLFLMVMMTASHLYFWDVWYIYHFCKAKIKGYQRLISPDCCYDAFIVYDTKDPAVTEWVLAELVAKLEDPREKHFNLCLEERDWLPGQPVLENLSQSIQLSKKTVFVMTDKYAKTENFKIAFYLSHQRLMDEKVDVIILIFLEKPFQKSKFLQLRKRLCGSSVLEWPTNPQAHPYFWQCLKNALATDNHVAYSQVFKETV
In words: Human PBMC cell-based assay, TLR7 agonist GS-986 stimulation, cytokine (IL-6 and IFNα) readout. As to conditions: human PBMCs, GS-986 400 nM, 6 hours; Table 26; read-out: TLR-7 EC50. An outline of the steps:
(§1)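 Cryopreserved healthy-donor PBMCs (100,000 cells/well, RPMI-1640 + 10% FBS) preincubated 1 h at 37 °C with antagonist (10-point dose response), then stimulated 6 h with GS-986 (400 nM final, TLR7) or ODN-2216 (3 μM final, TLR9). Supernatant IL-6 and IFNα measured by electrochemiluminescence immunoassay; EC50 from sigmoidal fit.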

For another assay, the target named is T2, TLR8 (Homo sapiens, UniProt Q9NR97).
T2 construct: lymphocytes, monocytes and dendritic cells that express TLR7, TLR8 and TLR9; endogenous in cells; host or cells: human PBMCs from healthy donors
T2 sequence (Q9NR97 27-1041): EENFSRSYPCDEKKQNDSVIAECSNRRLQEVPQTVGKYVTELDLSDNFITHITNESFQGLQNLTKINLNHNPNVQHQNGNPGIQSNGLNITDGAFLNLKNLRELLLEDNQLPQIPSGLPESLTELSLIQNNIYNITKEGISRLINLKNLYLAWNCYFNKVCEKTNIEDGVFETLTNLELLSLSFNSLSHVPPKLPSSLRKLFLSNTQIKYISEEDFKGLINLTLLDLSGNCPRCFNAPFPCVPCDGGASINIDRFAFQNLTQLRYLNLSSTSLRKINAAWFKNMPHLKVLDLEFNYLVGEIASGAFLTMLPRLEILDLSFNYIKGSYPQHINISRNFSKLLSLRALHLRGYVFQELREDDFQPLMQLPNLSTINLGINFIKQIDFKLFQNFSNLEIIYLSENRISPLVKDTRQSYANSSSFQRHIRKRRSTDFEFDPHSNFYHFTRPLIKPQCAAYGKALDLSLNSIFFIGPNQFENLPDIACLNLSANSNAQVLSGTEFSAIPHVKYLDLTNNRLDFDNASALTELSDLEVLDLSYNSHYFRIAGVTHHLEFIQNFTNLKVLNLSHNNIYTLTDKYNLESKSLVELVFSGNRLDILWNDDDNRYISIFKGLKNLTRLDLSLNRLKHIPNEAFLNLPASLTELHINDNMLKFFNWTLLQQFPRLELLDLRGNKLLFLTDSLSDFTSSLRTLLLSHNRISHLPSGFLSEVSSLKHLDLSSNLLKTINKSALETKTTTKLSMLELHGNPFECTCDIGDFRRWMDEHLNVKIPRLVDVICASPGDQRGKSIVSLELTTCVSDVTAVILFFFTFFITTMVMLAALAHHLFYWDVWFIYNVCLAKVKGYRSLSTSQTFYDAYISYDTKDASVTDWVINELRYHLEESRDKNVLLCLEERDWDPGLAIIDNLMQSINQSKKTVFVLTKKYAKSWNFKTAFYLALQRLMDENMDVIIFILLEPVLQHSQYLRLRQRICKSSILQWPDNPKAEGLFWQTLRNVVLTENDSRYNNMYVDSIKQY
As to the kind of experiment: TLR8 human PBMC cell-based assay, TLR8 agonist Compound A stimulation, cytokine (TNFa and IL12p40) readout. As to conditions: human PBMCs, Compound A 800 nM, 6 hours; Table 26; read-out: TLR-8 EC50. As to the method: Cryopreserved human PBMCs from healthy donors were thawed and resuspended in RPMI-1640 media with L-glutamine (Corning) supplemented with 10% Fetal Bovine Serum (Hyclone) and 1X Penicillin-Streptomycin (Corning). After counting, the cell density was adjusted to 2 million cells/ml and incubated for 1 hour at 37° C., 5% CO2 for recovery. Following the recovery, the cells were plated by adding 50p per well (100,000 cells) to 384-well cell culture plates (Greiner) containing 250nl of test antagonists in 100% DMSO per well, in a 10 points dose response in quadruplicates. PBMCs were incubated in the presence of antagonists for one hour at 37° C., 5% CO2 before being stimulated with TLR8 agonist. Compound A (Gilead Sciences, U.S. Pat. No. 10,285,990) was used as the TLR8 agonist at a final concentration of 800 nM. PBMCs were incubated in the presence of antagonist and the TLR8 agonist for an additional 6 hours at 37° C., […]. At the end of the incubation, the cell culture plates were centrifuged at 500 g for 5 min, and the cell culture supernatant was collected. The level of cytokines (TNFa and IL12p40) in the supernatant was measured by electrochemiluminescence immunoassays (Mesoscale Discovery) following manufacturer's recommended protocols. The level of cytokine measured was plotted against the antagonist concentration and fitted to a sigmoidal function to determine the EC50, which are shown below in Table 11.

For a further assay, the target named is T3, TLR9 (Homo sapiens, UniProt Q9NR96).
T3 construct: lymphocytes, monocytes and dendritic cells that express TLR7, TLR8 and TLR9; endogenous in cells; host or cells: human PBMCs from healthy donors
T3 sequence (Q9NR96 26-1032): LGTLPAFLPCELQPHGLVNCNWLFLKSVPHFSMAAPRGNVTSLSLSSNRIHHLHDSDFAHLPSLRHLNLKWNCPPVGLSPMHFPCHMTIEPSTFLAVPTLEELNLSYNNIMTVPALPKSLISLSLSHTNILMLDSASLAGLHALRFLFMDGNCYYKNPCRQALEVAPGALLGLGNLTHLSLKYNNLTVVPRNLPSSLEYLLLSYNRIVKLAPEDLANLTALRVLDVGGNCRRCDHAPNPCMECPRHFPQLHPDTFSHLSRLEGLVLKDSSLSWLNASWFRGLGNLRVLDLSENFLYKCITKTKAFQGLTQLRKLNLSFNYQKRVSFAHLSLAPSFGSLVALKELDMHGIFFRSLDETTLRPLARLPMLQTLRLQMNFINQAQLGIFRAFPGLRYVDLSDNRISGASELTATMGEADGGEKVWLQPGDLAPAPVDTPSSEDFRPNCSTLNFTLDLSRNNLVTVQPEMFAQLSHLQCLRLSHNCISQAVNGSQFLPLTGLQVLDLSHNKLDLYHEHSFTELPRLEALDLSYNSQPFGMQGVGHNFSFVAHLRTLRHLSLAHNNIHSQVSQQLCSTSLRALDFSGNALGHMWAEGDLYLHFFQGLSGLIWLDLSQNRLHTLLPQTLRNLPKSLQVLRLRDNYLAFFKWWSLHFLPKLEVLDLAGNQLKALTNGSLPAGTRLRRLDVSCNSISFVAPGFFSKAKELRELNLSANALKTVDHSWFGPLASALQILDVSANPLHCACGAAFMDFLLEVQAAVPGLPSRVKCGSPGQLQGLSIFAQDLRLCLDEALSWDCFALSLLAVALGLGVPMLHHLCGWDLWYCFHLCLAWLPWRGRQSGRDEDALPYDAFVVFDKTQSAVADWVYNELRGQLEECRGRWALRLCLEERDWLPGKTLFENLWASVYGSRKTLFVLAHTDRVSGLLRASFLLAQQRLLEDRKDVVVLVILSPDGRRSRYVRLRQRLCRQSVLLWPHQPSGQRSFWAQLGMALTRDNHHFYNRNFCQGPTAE
In words: Human PBMC cell-based assay, TLR9 agonist ODN-2216 stimulation, cytokine (IL-6 and IFNα) readout. As to conditions: human PBMCs, ODN-2216 3 μM, 6 hours; Table 26; read-out: TLR-9 EC50. In outline: as §1

Take `CCc1c(-c2cc(C)c3ncnn3c2)[nH]c2cc(-c3ccc(N4CCN(CCO)CC4)nc3)ccc12` [Example 173]: the concentration giving a half-maximal response (EC50) on TLR7 was found to be 0.11 nM; at TLR8, 5.16 nM.

Consider `CCc1c(-c2cc(OC)c3ncnn3c2)[nH]c2cc(-c3ccc(N4CCN(C(=O)C56CC(CN5)C6)CC4)nc3)ccc12` [Example 174], for which the results for the EC50 on TLR7 and on TLR8 were 0.12 nM and 3.33 nM, respectively.

As for `Cc1cc(-c2[nH]c3cc(-c4ccc(N5CCNCC5)nc4)ccc3c2C2CC2)cn2ncnc12` [Example 175], the values for the EC50 at TLR7 and on TLR8 were 0.15 nM and 8.15 nM, respectively.

For the compound `Cc1cc(-c2[nH]c3cc(-c4nc(N5CCNCC5)cs4)ccc3c2C)cc(C)n1` [Example 185, 2-(2-(2,6-dimethylpyridin-4-yl)-3-methyl-1H-indol-6-yl)-4-(piperazin-1-yl)thiazole], the concentration giving a half-maximal response (EC50) at TLR7 was found to be 37.4 nM; on TLR9, 54.3 nM.

Consider `Cc1cc(-c2[nH]c3cc(-c4nc(C5CCNCC5)cs4)ccc3c2C)cc(C)n1` [Example 186, 2-(2-(2,6-dimethylpyridin-4-yl)-3-methyl-1H-indol-6-yl)-4-(piperidin-4-yl)thiazole], for which the EC50 amounted to 121 nM at TLR7 and 225 nM at TLR9.

For the compound `Cc1cc(-c2[nH]c3cc(-c4ccc5c(c4)[nH]c(=O)n5C4CCNCC4)ccc3c2C)cc(C)n1` [Example 187, 6-[2-(2,6-dimethyl-4-pyridyl)-3-methyl-1H-indol-6-yl]-3-(4-piperidyl)-1H-benzimidazol-2-one], the values for the EC50 at TLR7 and at TLR9 were 171 nM and 469 nM, respectively.

Regarding `Cc1cc(-c2[nH]c3cc(-c4nc(N5CCNCC5)no4)ccc3c2C)cc(C)n1` [Example 188, 5-[2-(2,6-dimethyl-4-pyridyl)-3-methyl-1H-indol-6-yl]-3-piperazin-1-yl-1,2,4-oxadiazole], the concentration giving a half-maximal response (EC50) on TLR7 is 270 nM; on TLR9 it was 175 nM.

As for `Cc1cc(-c2[nH]c3cc(-c4nc(C5CCNCC5)no4)ccc3c2C)cc(C)n1` [Example 189], the 50% effective concentration (EC50) was found to be 108 nM on TLR7 and 217 nM at TLR9.

For `Cc1cc(-c2[nH]c3cc(-c4nnc(C5CCNCC5)o4)ccc3c2C)cc(C)n1` [Example 190, 2-[2-(2,6-dimethyl-4-pyridyl)-3-methyl-1H-indol-6-yl]-5-(4-piperidyl)-1,3,4-oxadiazole], the EC50 came to 16 nM at TLR7 and 55 nM on TLR9.

For `Cc1c(-c2cc(C)c3ncnn3c2)[nH]c2cc(-c3nnc(C4CCNCC4)o3)ccc12` [Example 191], the EC50 at TLR7 was 49.1 nM; on TLR8, 269 nM.

For the compound `Cc1c(-c2cc(C)c3ncnn3c2)[nH]c2cc(-c3nnc(N4CCNCC4)o3)ccc12` [Example 192], the EC50 turned out to be 65.6 nM at TLR7 and 403 nM at TLR8.

The values are drawn from patent publication US20250002471A1 (Gilead Sciences, Inc., priority 2020, published 2025).
